In the supplement of paper PMC10307832:

Legend:
Test in all cases: relative viability (nuclei count vs DMSO), 5 days (fraction); higher = more cells survive
EPLC-272H = test system: EPLC-272H
Procedure, shortened: (§1)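 Lung cancer cell lines, seeded in 1536-well plates, were treated the following day by pin tool with a single drug or with five library-drug doses (not always all listed) in √10 steps on top of a fixed anchor-drug dose. Cells were fixed and nuclei stained in one step after 5 days, and nuclei were counted. Relative viability is the nuclei count for treated wells divided by that for vehicle wells, reported as medians of duplicate plates.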

UMC-11 = test system: UMC-11
Procedure, shortened: as §1

NCI-H2085 = test system: NCI-H2085
Procedure, shortened: as §1

LC-2-ad = test system: LC-2-ad
Procedure, shortened: as §1

COR-L 105 = test system: COR-L 105
Procedure, shortened: as §1

SK-LU-1 = test system: SK-LU-1
Procedure, shortened: as §1

NCI-H1915 = test system: NCI-H1915
Procedure, shortened: as §1

HOP-62 = test system: HOP-62
Procedure, shortened: as §1

NCI-H1666 = test system: NCI-H1666
Procedure, shortened: as §1

NCI-H1944 = test system: NCI-H1944
Procedure, shortened: as §1

LU99A = test system: LU99A
Procedure, shortened: as §1

NCI-H2170 = test system: NCI-H2170
Procedure, shortened: as §1

NCI-H358 = test system: NCI-H358
Procedure, shortened: as §1

HCC-78 = test system: HCC-78
Procedure, shortened: as §1

A-427 = test system: A-427
Procedure, shortened: as §1

NCI-H460 = test system: NCI-H460
Procedure, shortened: as §1

HCC-366 = test system: HCC-366
Procedure, shortened: as §1

NCI-H2009 = test system: NCI-H2009
Procedure, shortened: as §1

LXF-289 = test system: LXF-289
Procedure, shortened: as §1

NCI-H1793 = test system: NCI-H1793
Procedure, shortened: as §1

NCI-H1792 = test system: NCI-H1792
Procedure, shortened: as §1

O=c1cc(N2CCOCC2)oc2c(-c3cccc4c3sc3ccccc34)cccc12 + Cc1nc(NC(=O)N2CCC[C@H]2C(N)=O)sc1-c1ccnc(C(C)(C)C(F)(F)F)c1 [Alpelisib] (partner 2 µM)
relative viability (EPLC-272H; first compound 0.01 µM): 0.955 | relative viability (EPLC-272H; first compound 0.03162 µM): 0.957 | relative viability (EPLC-272H; first compound 0.3162 µM): 1.03 | relative viability (EPLC-272H; first compound 1 µM): 0.891 | relative viability (UMC-11; first compound 0.01 µM): 0.995 | relative viability (UMC-11; first compound 0.03162 µM): 1.01 | relative viability (UMC-11; first compound 0.1 µM): 0.986 | relative viability (UMC-11; first compound 0.3162 µM): 0.979 | relative viability (UMC-11; first compound 1 µM): 0.872 | relative viability (NCI-H2085; first compound 0.01 µM): 0.941 | relative viability (NCI-H2085; first compound 0.03162 µM): 0.902 | relative viability (NCI-H2085; first compound 0.1 µM): 1.02 | relative viability (NCI-H2085; first compound 0.3162 µM): 0.919 | relative viability (NCI-H2085; first compound 1 µM): 0.983 | relative viability (LC-2-ad; first compound 0.01 µM): 0.91 | relative viability (LC-2-ad; first compound 0.1 µM): 0.976 | relative viability (LC-2-ad; first compound 0.3162 µM): 0.839 | relative viability (LC-2-ad; first compound 1 µM): 0.906 | relative viability (COR-L 105; first compound 0.01 µM): 1.1 | relative viability (COR-L 105; first compound 0.03162 µM): 0.933 | relative viability (COR-L 105; first compound 0.1 µM): 0.834 | relative viability (COR-L 105; first compound 0.3162 µM): 1.06 | relative viability (COR-L 105; first compound 1 µM): 0.838 | relative viability (SK-LU-1; first compound 0.03162 µM): 0.966 | relative viability (SK-LU-1; first compound 0.1 µM): 0.985 | relative viability (SK-LU-1; first compound 0.3162 µM): 1.09 | relative viability (SK-LU-1; first compound 1 µM): 1.01 | relative viability (NCI-H1915; first compound 0.01 µM): 1.08 | relative viability (NCI-H1915; first compound 0.03162 µM): 1.04 | relative viability (NCI-H1915; first compound 0.1 µM): 1.07 | relative viability (NCI-H1915; first compound 0.3162 µM): 1.04 | relative viability (NCI-H1915; first compound 1 µM): 1.06 | relative viability (HOP-62; first compound 0.01 µM): 1.08 | relative viability (HOP-62; first compound 0.03162 µM): 0.958 | relative viability (HOP-62; first compound 0.1 µM): 1.24 | relative viability (HOP-62; first compound 0.3162 µM): 1.19 | relative viability (HOP-62; first compound 1 µM): 1.1 | relative viability (NCI-H1666; first compound 0.01 µM): 0.936 | relative viability (NCI-H1666; first compound 0.03162 µM): 0.864 | relative viability (NCI-H1666; first compound 0.1 µM): 0.977 | relative viability (NCI-H1666; first compound 0.3162 µM): 0.963 | relative viability (NCI-H1666; first compound 1 µM): 0.832 | relative viability (NCI-H1944; first compound 0.01 µM): 0.814 | relative viability (NCI-H1944; first compound 0.03162 µM): 0.833 | relative viability (NCI-H1944; first compound 0.1 µM): 0.82 | relative viability (NCI-H1944; first compound 0.3162 µM): 0.847 | relative viability (NCI-H1944; first compound 1 µM): 0.801 | relative viability (LU99A; first compound 0.01 µM): 0.595 | relative viability (LU99A; first compound 0.03162 µM): 0.532 | relative viability (LU99A; first compound 0.1 µM): 0.521 | relative viability (LU99A; first compound 0.3162 µM): 0.598 | relative viability (LU99A; first compound 1 µM): 0.571 | relative viability (NCI-H2170; first compound 0.01 µM): 0.83 | relative viability (NCI-H2170; first compound 0.03162 µM): 0.782 | relative viability (NCI-H2170; first compound 0.1 µM): 0.837 | relative viability (NCI-H2170; first compound 0.3162 µM): 0.817 | relative viability (NCI-H2170; first compound 1 µM): 0.735 | relative viability (NCI-H358; first compound 0.01 µM): 0.811 | relative viability (NCI-H358; first compound 0.03162 µM): 0.807 | relative viability (NCI-H358; first compound 0.1 µM): 0.841 | relative viability (NCI-H358; first compound 0.3162 µM): 0.847 | relative viability (NCI-H358; first compound 1 µM): 0.83 | relative viability (HCC-78; first compound 0.01 µM): 0.374 | relative viability (HCC-78; first compound 0.03162 µM): 0.305 | relative viability (HCC-78; first compound 0.1 µM): 0.299 | relative viability (HCC-78; first compound 0.3162 µM): 0.406 | relative viability (HCC-78; first compound 1 µM): 0.331 | relative viability (A-427; first compound 0.01 µM): 1.11 | relative viability (A-427; first compound 0.03162 µM): 1.12 | relative viability (A-427; first compound 0.1 µM): 1.03 | relative viability (A-427; first compound 0.3162 µM): 1.04 | relative viability (A-427; first compound 1 µM): 1.09 | relative viability (NCI-H460; first compound 0.01 µM): 0.509 | relative viability (NCI-H460; first compound 0.03162 µM): 0.502 | relative viability (NCI-H460; first compound 0.1 µM): 0.495 | relative viability (NCI-H460; first compound 0.3162 µM): 0.373 | relative viability (NCI-H460; first compound 1 µM): 0.538 | relative viability (HCC-366; first compound 0.01 µM): 0.386 | relative viability (HCC-366; first compound 0.03162 µM): 0.469 | relative viability (HCC-366; first compound 0.1 µM): 0.44 | relative viability (HCC-366; first compound 0.3162 µM): 0.372 | relative viability (HCC-366; first compound 1 µM): 0.367 | relative viability (NCI-H2009; first compound 0.01 µM): 1.12 | relative viability (NCI-H2009; first compound 0.03162 µM): 1.14 | relative viability (NCI-H2009; first compound 0.1 µM): 1.18 | relative viability (NCI-H2009; first compound 0.3162 µM): 1.15 | relative viability (NCI-H2009; first compound 1 µM): 1.13 | relative viability (LXF-289; first compound 0.01 µM): 1.05 | relative viability (LXF-289; first compound 0.03162 µM): 1.03 | relative viability (LXF-289; first compound 0.1 µM): 1.05 | relative viability (LXF-289; first compound 0.3162 µM): 1 | relative viability (LXF-289; first compound 1 µM): 1.02 | relative viability (NCI-H1793; first compound 0.01 µM): 0.607 | relative viability (NCI-H1793; first compound 0.03162 µM): 0.866 | relative viability (NCI-H1793; first compound 0.1 µM): 0.7 | relative viability (NCI-H1793; first compound 0.3162 µM): 0.705 | relative viability (NCI-H1793; first compound 1 µM): 0.484 | relative viability (NCI-H1792; first compound 0.01 µM): 0.677 | relative viability (NCI-H1792; first compound 0.03162 µM): 0.628 | relative viability (NCI-H1792; first compound 0.1 µM): 0.709 | relative viability (NCI-H1792; first compound 0.3162 µM): 0.672 | relative viability (NCI-H1792; first compound 1 µM): 0.674
